The record followed here is patent US8853258B2, “C-linked hydroxamic acid derivatives useful as antibacterial agents” (Pfizer Inc., priority 2009, dated 2014).

The test system of data set [1] is Pseudomonas aeruginosa UI-18: Wild-type (PA-7). Briefly: MIC determination (CLSI), PA-7. Format: cell-based. Particulars: Pseudomonas aeruginosa; Table 3; read-out: PA-7 MIC. Put shortly:
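MIC by dilution method per CLSI M7-A7 and M100-S18 guidelines. Strain: wild-type Pseudomonas aeruginosa UI-18.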

Data set [2] relates to Acinetobacter baumanii/haemolyticus: Multidrug-resistant clinical isolate (AB-3167). Briefly: MIC determination (CLSI), AB-3167. Format: cell-based. The conditions noted are these: Acinetobacter baumannii; Table 3; read-out: AB-3167 MIC. Put shortly: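 Multidrug-resistant clinical isolate AB-3167 (A. baumannii/haemolyticus) tested for minimum inhibitory concentration following CLSI dilution susceptibility standards M7-A7 and M100-S18.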

Data set [3] has as its system Escherichia coli EC-1: VOGEL, mouse virulent. Briefly: MIC determination (CLSI), EC-1. Format: cell-based. Particulars: Escherichia coli, read-out: EC-1 MIC. Put shortly:
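E. coli Vogel, a mouse-virulent strain (EC-1), was tested. MICs were set by dilution susceptibility testing per CLSI standards M7-A7/M100-S18.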

Data set [4] has as its system Klebsiella pneumoniae: Ciprofloxacin-resistant isolate, ESBL, clinical isolate (KP-3700). Briefly: MIC determination (CLSI), KP-3700. It counts as cell-based. Put shortly: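 MIC measured by broth dilution according to CLSI M7-A7 and M100-S18 standards. Test organism was a ciprofloxacin-resistant, ESBL-expressing clinical isolate.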
Data set [5] deals with Pseudomonas aeruginosa LpxC enzyme (Pseudomonas aeruginosa (strain ATCC 15692 / DSM 22644 / CIP 104116 / JCM 14847 / LMG 12228 / 1C / PRS 101 / PAO1), UniProt P47205). Briefly: IC50 Assay, LpxC Enzyme from P. aeruginosa (PA LpxC Enzyme IC50). Format: biochemical. The conditions noted are these: Table 3; read-out: PA LpxC enzyeme IC^50. Put shortly:
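Reaction run 1 h then stopped with 1N HCl. Conversion measured by RapidFire high-throughput mass spectrometry. IC50 derived from percent conversion relative to a no-enzyme control.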

Values after ≈ are worked out from the molar mass of the structure shown.

One may read the MIC as the lowest concentration found to suppress growth. Turning to `CC(CCc1ccc(OCCCOc2ccccc2)cc1)(C(=O)NO)S(C)(=O)=O` (stereo not shown) [Example 297, N-hydroxy-2-methyl-2-(methylsulfonyl)-4-[4-(3-phenoxypropoxy)phenyl]butanamide], the figures for the MIC in data set [1], in data set [2] and in data set [3] were not below 64 µg/mL, 32 µg/mL (≈ 75.9 µM) and 16 µg/mL (≈ 38 µM), respectively. In addition, the “KP-3700 MIC” value in data set [4] is “≧64 mg/L”. Also, the IC50 in data set [5] was 42.5 nM.

For the compound `CC(CCc1ccc(OCc2nc(-c3cccc(Cl)c3)no2)cc1)(C(=O)NO)S(C)(=O)=O` (stereo not shown) [Example 298, 4-(4-{[3-(3-chlorophenyl)-1,2,4-oxadiazol-5-yl]methoxy}phenyl)-N-hydroxy-2-methyl-2-(methylsulfonyl)butanamide], the MIC is 32 µg/mL (≈ 66.7 µM) in data set [1], 16 µg/mL (≈ 33.3 µM) in data set [2] and 16 µg/mL (≈ 33.3 µM) in data set [3]. For the same compound, in data set [4], the “KP-3700 MIC” value is 32 µg/mL. Moreover, the IC50 in data set [5] turned out to be 1.66 nM.

Consider `CC(C)c1ccc(-c2noc(COc3ccc(CCC(C)(C(=O)NO)S(C)(=O)=O)cc3)n2)cc1` (stereo not shown) [Example 299, N-hydroxy-4-(4-{[3-(4-isopropylphenyl)-1,2,4-oxadiazol-5-yl]methoxy}phenyl)-2-methyl-2-(methylsulfonyl)butanamide], for which the minimum inhibitory concentration (MIC) in data set [1] was not below 64 µg/mL; in data set [2], not below 64 µg/mL; in data set [3] it was 16 µg/mL (≈ 32.8 µM). For the same compound, the “KP-3700 MIC” value in data set [4] is given as “≧64 mg/L”. Further, the IC50 in data set [5] is 3.93 nM.

Consider `CC(CCc1ccc(OCc2nc(C3CCC3)no2)cc1)(C(=O)NO)S(C)(=O)=O` (stereo not shown) [Example 300, 4-{4-[(3-cyclobutyl-1,2,4-oxadiazol-5-yl)methoxy]phenyl}-N-hydroxy-2-methyl-2-(methylsulfonyl)butanamide], for which the MIC in data set [1] is 32 µg/mL (≈ 75.6 µM); in data set [2] it was not below 64 µg/mL; in data set [3] it was 16 µg/mL (≈ 37.8 µM). Also, the “KP-3700 MIC” value in data set [4] was 32 µg/mL. Besides, the IC50 in data set [5] amounted to 7.56 nM.

`CC(CCc1ccc(OCc2ccc(C(F)(F)F)cc2)cc1)(C(=O)NO)S(C)(=O)=O` (stereo not shown) [Example 301, N-hydroxy-2-methyl-2-(methylsulfonyl)-4-(4-{[4-(trifluoromethyl)benzyl]oxy}phenyl)butanamide]: the MIC in data set [1] was 8 µg/mL (≈ 18 µM); in data set [2] it was 4 µg/mL (≈ 8.98 µM); in data set [3], 4 µg/mL (≈ 8.98 µM). Also, in data set [4], the “KP-3700 MIC” value was found to be 8 µg/mL. Further, in data set [5], the IC50 amounted to 2.08 nM.

As to `Cc1oc(-c2cccc(F)c2)nc1COc1ccc(CCC(C)(C(=O)NO)S(C)(=O)=O)cc1` (stereo not shown) [Example 302, 4-(4-{[2-(3-fluorophenyl)-5-methyl-1,3-oxazol-4-yl]methoxy}phenyl)-N-hydroxy-2-methyl-2-(methylsulfonyl)butanamide], the MIC in data set [1] is not below 64 µg/mL; in data set [2], not below 64 µg/mL; in data set [3], 16 µg/mL (≈ 33.6 µM). The “KP-3700 MIC” value in data set [4] is reported as “≧64 mg/L”. Moreover, the IC50 in data set [5] was determined as 12.5 nM.

As to `CC(CCc1ccc(OCc2cccnc2)cc1)(C(=O)NO)S(C)(=O)=O` (stereo not shown) [Example 303, N-hydroxy-2-methyl-2-(methylsulfonyl)-4-[4-(pyridin-3-ylmethoxy)phenyl]butanamide], the MIC in data set [1] is 16 µg/mL (≈ 42.3 µM); in data set [2], not below 64 µg/mL; in data set [3], not below 64 µg/mL. For the same compound, the “KP-3700 MIC” value in data set [4] is given as “≧64 mg/L”. In addition, the IC50 in data set [5] was 4.58 nM.

With `CC(CCc1ccc(OCc2ccc(-n3cccn3)cc2)cc1)(C(=O)NO)S(C)(=O)=O` (stereo not shown) [Example 304, N-hydroxy-2-methyl-2-(methylsulfonyl)-4-(4-{[4-(1H-pyrazol-1-yl)benzyl]oxy}phenyl)butanamide], the MIC was determined as 16 µg/mL (≈ 36.1 µM) in data set [1], 32 µg/mL (≈ 72.1 µM) in data set [2] and 4 µg/mL (≈ 9.02 µM) in data set [3]. Besides, the “KP-3700 MIC” value in data set [4] was 16 µg/mL. Also, the IC50 in data set [5] was determined as 1.99 nM.

Regarding `CC(CCc1ccc(OCc2nc(-c3cccnc3)no2)cc1)(C(=O)NO)S(C)(=O)=O` (stereo not shown) [Example 305, N-hydroxy-2-methyl-2-(methylsulfonyl)-4-{4-[(3-pyridin-3-yl-1,2,4-oxadiazol-5-yl)methoxy]phenyl}butanamide], the MIC is 32 µg/mL (≈ 71.7 µM) in data set [1], not below 64 µg/mL in data set [2] and 32 µg/mL (≈ 71.7 µM) in data set [3]. Moreover, the “KP-3700 MIC” value in data set [4] is “≧64 mg/L”. The IC50 in data set [5] is 7.53 nM.

On to `CCc1ccccc1COc1ccc(CCC(C)(C(=O)NO)S(C)(=O)=O)cc1` (stereo not shown) [Example 306, 4-{4-[(2-ethylbenzyl)oxy]phenyl}-N-hydroxy-2-methyl-2-(methylsulfonyl)butanamide], for which the MIC in data set [1] was 16 µg/mL (≈ 39.5 µM); in data set [2], 16 µg/mL (≈ 39.5 µM); in data set [3] it was 8 µg/mL (≈ 19.7 µM). Further, the “KP-3700 MIC” value in data set [4] was 32 µg/mL. In addition, the IC50 in data set [5] was 0.813 nM.

With `CC(CCc1ccc(OCc2ccc(Cl)cc2F)cc1)(C(=O)NO)S(C)(=O)=O` (stereo not shown) [Example 307, 4-{4-[(4-chloro-2-fluorobenzyl)oxy]phenyl}-N-hydroxy-2-methyl-2-(methylsulfonyl)butanamide], the MIC in data set [1] was found to be 4 µg/mL (≈ 9.3 µM); in data set [2] it was 16 µg/mL (≈ 37.2 µM); in data set [3], 2 µg/mL (≈ 4.65 µM). The “KP-3700 MIC” value in data set [4] came to 8 µg/mL. The IC50 in data set [5] is 0.393 nM.

As to `CC(CCc1ccc(OCc2nc(-c3ccccc3)no2)cc1)(C(=O)NO)S(C)(=O)=O` (stereo not shown) [Example 308, N-hydroxy-2-methyl-2-(methylsulfonyl)-4-{4-[(3-phenyl-1,2,4-oxadiazol-5-yl)methoxy]phenyl}butanamide], the values for the MIC in data set [1], in data set [2] and in data set [3] were 32 µg/mL (≈ 71.8 µM), not below 64 µg/mL and 4 µg/mL (≈ 8.98 µM), respectively. Further, the “KP-3700 MIC” value in data set [4] was 16 µg/mL. In addition, in data set [5], the IC50 stood at 2.56 nM.

As to `CC(CCc1ccc(OCc2ccc(S(C)(=O)=O)cc2)cc1)(C(=O)NO)S(C)(=O)=O` (stereo not shown) [Example 309, N-hydroxy-2-methyl-2-(methylsulfonyl)-4-(4-{[4-(methylsulfonyl)benzyl]oxy}phenyl)butanamide], the MIC is 8 µg/mL (≈ 17.6 µM) in data set [1], not below 64 µg/mL in data set [2] and 8 µg/mL (≈ 17.6 µM) in data set [3]. Also, the “KP-3700 MIC” value in data set [4] stood at 16 µg/mL. Moreover, in data set [5], the IC50 came out at 1.21 nM.

Turning to `Cc1cccc(COc2ccc(CCC(C)(C(=O)NO)S(C)(=O)=O)cc2)c1` (stereo not shown) [Example 310, N-hydroxy-2-methyl-4-{4-[(3-methylbenzyl)oxy]phenyl}-2-(methylsulfonyl)butanamide], the values for the MIC in data set [1], in data set [2] and in data set [3] were 4 µg/mL (≈ 10.2 µM), 16 µg/mL (≈ 40.9 µM) and 2 µg/mL (≈ 5.11 µM), respectively. The “KP-3700 MIC” value in data set [4] came to 8 µg/mL. The IC50 in data set [5] is 0.883 nM.
